This passage reports CC50 and EC50 results from US20180072997A1, “INHIBITORS OF HUMAN IMMUNODEFICIENCY VIRUS REPLICATION” (ViiV HEATHCARE UK (NO.5) LIMITED, priority 2015, published 2018).

Where only a bound is given, the exact number is not on record here.

Data set [1] in a line: Compound cytotoxicity, XTT-based colorimetric assay. The following applies: human, uninfected MT2 cells, day 4, XTT. The format is cell-based. As to the method: Compound cytotoxicity and the corresponding CC50 values were determined using the same protocol as described in the antiviral assay except that uninfected cells were used. Cytotoxicity was assessed on day 4 in uninfected MT2 cells by using a XTT (2,3-bis[2-Methoxy-4-nitro-5-sulfophenyl]-2H-tetrazolium-5-carboxyanilide inner salt)-based colorimetric assay (Sigma-Aldrich, St Louis, Mo.).

Data set [2] concerns recombinant NL4-3 virus (Renilla luciferase in nef) in MT-2 cells. The data set is described as follows: whole plant or invertebrate. Conditions: luciferase activity. In kind it is cell-based, HIV. As to the method: HIV cell culture assay—MT-2 cells, 293T cells and the proviral DNA clone of NL4-3 virus were obtained from the NIH AIDS Research and Reference Reagent Program. MT-2 cells were propagated in RPMI 1640 media supplemented with 10% heat inactivated fetal bovine serum (FBS), 100 μg/ml penicillin G and up to 100 units/mL streptomycin. The 293T cells were propagated in DMEM media supplemented with 10% heat inactivated FBS, 100 μg/mL penicillin G and 100 μg/mL streptomycin. A recombinant NL4-3 proviral clone, in which a section of the nef gene was replaced with the Renilla luciferase gene, was used to make the reference virus used in these studies. The recombinant virus was prepared through transfection of the recombinant NL4-3 proviral clone into 293T cells using Transit-293 Transfection Reagent from Mirus Bio LLC (Madison, Wis.). Supernatent was harvested after 2-3 days and the amount of virus present was titered in MT-2 cells using luciferase enzyme activity as a marker by measuring luciferase enzyme activity. Luciferase was quantitated using the EnduRen Live Cell Substrate from Promega (Madison, Wis.). Antiviral activities of compounds toward the recombinant virus were quantified by measuring luciferase activity in MT-2 cells infected for 4-5 days with the recombinant virus in the presence of serial dilutions of the compound.
(Johnson V A, Byington R T. Infectivity Assay. In Techniques in HIV Research. ed. Aldovini A, Walker BD. 71-76. New York: Stockton Press.1990).

[3] abbreviates: Renilla, NL43, MT-2 cells infected for 4-5 days with recombinant NL4-3 Renilla luciferase virus.

In the case of `COc1ccc(N(C)C(=O)[C@H](Cc2ccccc2)NC(=O)/C=C\C(=O)N[C@@H](Cc2ccccc2)C(=O)N(C)c2ccc(OC)cc2)cc1` [Example 80], the 50% cytotoxic concentration (CC50) at 4 days in data set [1] came to 12800 nM. Besides, the EC50 in data set [2] (setting [3]) is 160 nM. `C=CCN(C(=O)[C@H](Cc1cc(F)cc(F)c1)NC(=O)c1ccccc1S(=O)(=O)N[C@@H](Cc1cc(F)cc(F)c1)C(=O)N(CC=C)c1ccc(OC)cc1)c1ccc(OC)cc1` [Example 210] showed a CC50 at 4 days in data set [1] not below 100000 nM. The EC50 in data set [2] (setting [3]) was 10100 nM. In data set [1], `COc1ccc(N(C)C(=O)[C@H](Cc2ccccc2)NC(=O)Cn2c(=O)n(CC(=O)N[C@@H](Cc3ccccc3)C(=O)N(C)c3ccc(OC)cc3)c3cc(N)ccc32)cc1` [Example 90] displayed a half-maximal cytotoxic concentration (CC50) at 4 days of 22700 nM. In addition, the EC50 in data set [2] (setting [3]) was 340 nM. Consider `COc1ccc(N(C)C(=O)[C@H](Cc2cc(F)cc(F)c2)NC(=O)C(C)n2c(=O)n(C(C)C(=O)N[C@@H](Cc3cc(F)cc(F)c3)C(=O)N(C)c3ccc(OC)cc3)c3ccccc32)cc1` (single isomer, unassigned) [Example 132], for which the midpoint of cytotoxicity in data set [1], the CC50 at 4 days, lay at 7300 nM. Further, in data set [2] (MT-2 cells infected for 4-5 days with recombinant NL4-3 Renilla luciferase virus), the EC50 is 1940 nM.

Regarding `COc1ccc(N(C)C(=O)[C@H](Cc2ccccc2)NC(=O)[C@H](Cc2ccccc2)NC(=O)N[C@@H](Cc2ccccc2)C(=O)N[C@@H](Cc2ccccc2)C(=O)N(C)c2ccc(OC)cc2)cc1` [Example 62], the CC50 at 4 days in data set [1] was not below 100000 nM. Besides, in data set [2] (setting [3]), the EC50 worked out at 490 nM.

In data set [1], `C=CCN(C(=O)[C@H](Cc1cc(F)cc(F)c1)NC(=O)NS(=O)(=O)N[C@@H](Cc1cc(F)cc(F)c1)C(=O)N(CC=C)c1ccc(OC)nc1)c1ccc(OC)nc1` [Example 194] gave a CC50 at 4 days of 41900 nM. The EC50 in data set [2] (setting [3]) worked out at 580 nM. On the same counts, the results for `CN(C(=O)[C@H](Cc1cc(F)cc(F)c1)NC(=O)NS(=O)(=O)N[C@@H](Cc1cc(F)cc(F)c1)C(=O)N(C)c1ccc(F)c(F)c1)c1ccc(F)c(F)c1` [Example 215] are 34500 nM and 310 nM. Consider `C=CCN(C(=O)[C@H](Cc1cc(F)cc(F)c1)NS(=O)(=O)c1ccccc1S(=O)(=O)N[C@@H](Cc1cc(F)cc(F)c1)C(=O)N(CC=C)c1ccc(OC)cc1)c1ccc(OC)cc1` [Example 193], for which the CC50 at 4 days in data set [1] was not below 33300 nM. Besides, the EC50 in data set [2] (setting [3]) stood at 1740 nM. On the same counts, the results for `CCN(C(=O)[C@H](Cc1cc(F)cc(F)c1)NC(=O)NS(=O)(=O)N[C@@H](Cc1cc(F)cc(F)c1)C(=O)N(CC)c1ccc(NC(=O)OC)cc1)c1ccc(NC(=O)OC)cc1` [Example 149] are 79500 nM and 1640 nM.

In data set [1], `CN(C(=O)[C@H](Cc1cc(F)cc(F)c1)Nc1ccnc(N[C@@H](Cc2cc(F)cc(F)c2)C(=O)N(C)c2ccc3scnc3c2)n1)c1ccc2scnc2c1` [Example 146] gave a CC50 at 4 days of 30600 nM. Further, the EC50 in data set [2] (setting [3]) came out at 2860 nM. On the same counts, the results for `COc1ccc(N(C)C(=O)[C@H](Cc2ccccc2)NC(=O)CS(=O)(=O)N[C@@H](Cc2ccccc2)C(=O)N(C)c2ccc(OC)cc2)cc1` [Example 63] are 30200 nM and 1090 nM. Regarding `CN(C(=O)[C@H](Cc1cc(F)cc(F)c1)NC(=O)/C=C\C(=O)N[C@@H](Cc1cc(F)cc(F)c1)C(=O)N(C)c1ccc2scnc2c1)c1ccc2scnc2c1` [Example 128], half-maximal cytotoxicity in data set [1] (CC50 at 4 days) was put at 12600 nM. In addition, the EC50 in data set [2] (setting [3]) was determined as 80 nM.

In data set [1], `CN(C(=O)[C@H](Cc1ccccc1)NC(=O)NS(=O)(=O)N[C@@H](Cc1ccccc1)C(=O)N(C)c1ccc(C(C)(C)C)cc1)c1ccc(C(C)(C)C)cc1` [Example 167] showed a CC50 at 4 days of 26500 nM. The EC50 in data set [2] (setting [3]) was found to be 270 nM. For `COc1ccc(N(C)C(=O)[C@H](Cc2ccccc2)NC(=O)CC2(CC(=O)N[C@@H](Cc3ccccc3)C(=O)N(C)c3ccc(OC)cc3)CCCC2)cc1` [Example 78] the same measures were not below 50000 nM and 50000 nM.

As to `Cc1nc2cc(N(C)C(=O)[C@H](Cc3cc(F)cc(F)c3)NC(=O)NS(=O)(=O)N[C@@H](Cc3cc(F)cc(F)c3)C(=O)N(C)c3ccc4sc(C)nc4c3)ccc2s1` [Example 151], in data set [1], the CC50 at 4 days turned out to be 33400 nM. The concentration giving a half-maximal response (EC50) in data set [2] (setting [3]) turned out to be 190 nM.

With `CCN(C(=O)[C@H](Cc1cc(F)cc(F)c1)NC(=O)NS(=O)(=O)N[C@@H](Cc1cc(F)cc(F)c1)C(=O)N(CC)c1ccc2oc(=O)n(CC)c2c1)c1ccc2oc(=O)n(CC)c2c1` [Example 156], the CC50 at 4 days in data set [1] is not below 50000 nM. Moreover, in data set [2] (setting [3]), the EC50 worked out at 24700 nM. On the same counts, the results for `COc1ccc(N(C)C(=O)[C@H](Cc2ccccc2)NC(=O)C2CCCCC2C(=O)N[C@@H](Cc2ccccc2)C(=O)N(C)c2ccc(OC)cc2)cc1` (mixture of isomers) [Example 53] are not below 33300 nM and 340 nM. On the same counts, the results for `COc1ccc(N(C)C(=O)[C@H](Cc2ccccc2)NC(=O)c2cc(C)cc(C(=O)N[C@@H](Cc3ccccc3)C(=O)N(C)c3ccc(OC)cc3)c2)cc1` [Example 102] are not below 33300 nM and 50 nM. In turn, `C=CCN(C(=O)[C@H](Cc1cc(F)cc(F)c1)NS(=O)(=O)CS(=O)(=O)N[C@@H](Cc1cc(F)cc(F)c1)C(=O)N(CC=C)c1ccc(OC)cc1)c1ccc(OC)cc1` [Example 163] yielded a CC50 at 4 days in data set [1] not below 100000 nM. In addition, the EC50 in data set [2] (setting [3]) turned out to be 2560 nM. As to `Cc1ncc(N(C)C(=O)[C@H](Cc2cc(F)cc(F)c2)NC(=O)NS(=O)(=O)N[C@@H](Cc2cc(F)cc(F)c2)C(=O)N(C)c2cnc(C)c(Cl)c2)cc1Cl` [Example 225], the CC50 at 4 days in data set [1] came to 2300 nM. Further, the EC50 in data set [2] (setting [3]) turned out to be 870 nM.

The molecule `COc1ccc(NC(=O)[C@H](Cc2ccccc2)NS(=O)(=O)NC(=O)N[C@@H](Cc2ccccc2)C(=O)N(C)c2ccc(OC)cc2)cc1` [Example 12] gave a CC50 at 4 days in data set [1] of 29000 nM. For the same molecule, the EC50 in data set [2] (setting [3]) worked out at 12400 nM. `C=CCN(C(=O)[C@H](Cc1cc(F)cc(F)c1)NC(=O)c1ccc(F)c(C(=O)N[C@@H](Cc2cc(F)cc(F)c2)C(=O)N(CC=C)c2ccc(OC)cc2)c1)c1ccc(OC)cc1` [Example 139] showed a CC50 at 4 days in data set [1] not below 33300 nM. In data set [2] (setting [3]), the concentration for a half-maximal effect (EC50) stood at 40 nM. On the same counts, the results for `CN(C(=O)[C@H](Cc1cc(F)cc(F)c1)NC(=O)c1cccc(C(=O)N[C@@H](Cc2cc(F)cc(F)c2)C(=O)N(C)c2ccc3scnc3c2)c1)c1ccc2scnc2c1` [Example 51] are not below 100000 nM and 10 nM. For `C=CCN(C(=O)[C@H](Cc1cc(F)cc(F)c1)NS(=O)(=O)CCCS(=O)(=O)N[C@@H](Cc1cc(F)cc(F)c1)C(=O)N(CC=C)c1ccc(OC)cc1)c1ccc(OC)cc1` [Example 164] the same measures were not below 100000 nM and 2640 nM. On the same counts, the results for `Cc1ccc(N(C)C(=O)[C@H](Cc2ccccc2)NC(=O)NS(=O)(=O)N[C@@H](Cc2ccccc2)C(=O)N(C)c2ccc(C)c(Cl)c2)cc1Cl` [Example 220] are 16700 nM and 3800 nM. On to `COc1ccc(N(C)C(=O)[C@H](Cc2cc(F)cc(F)c2)NC(=O)NS(=O)(=O)N[C@@H](Cc2cc(F)cc(F)c2)C(=O)N(C)c2ccc(OC)nc2)cn1` [Example 176], for which the CC50 at 4 days in data set [1] is not below 100000 nM. In data set [2] (setting [3]), the EC50 was determined as 40 nM.

As to `COc1ccc(N(C)C(=O)[C@H](Cc2cc(F)cc(F)c2)NC(=O)c2ccc(F)c(C(=O)N[C@@H](Cc3cc(F)cc(F)c3)C(=O)N(C)c3ccc(OC)nc3)c2)cn1` [Example 196], in data set [1], the CC50 at 4 days is not below 100000 nM. Further, in data set [2] (setting [3]), the EC50 was 370 nM. Regarding `COc1ccc(N(C)C(=O)[C@H](Cc2ccccc2)NC(=O)NS(=O)(=O)N[C@@H](Cc2ccc(F)cc2)C(=O)N(C)C)cc1` [Example 9], the CC50 at 4 days in data set [1] was not below 100000 nM. In addition, the EC50 in data set [2] (setting [3]) came to 2670 nM. For `COc1ccc(N(C)C(=O)[C@H](Cc2ccccc2)NC(=O)c2cc(C(=O)N[C@@H](Cc3ccccc3)C(=O)N(C)c3ccc(OC)cc3)cc(C(C)(C)C)c2)cc1` [Example 103] the same measures were not below 33300 nM and 150 nM. On the same counts, the results for `COc1ccc(N(C)C(=O)[C@H](Cc2ccccc2)NC(=O)c2cc(C(=O)N[C@@H](Cc3ccccc3)C(=O)N(C)c3ccc(OC)cc3)ncn2)cc1` [Example 112] are 1300 nM and 1710 nM.

`CN(C(=O)[C@H](Cc1cc(F)cc(F)c1)NC(=O)NS(=O)(=O)N[C@@H](Cc1cc(F)cc(F)c1)C(=O)N(C)c1ccc2c(cnn2C)c1)c1ccc2c(cnn2C)c1` [Example 185]: the CC50 at 4 days in data set [1] amounted to 96000 nM. Besides, the EC50 in data set [2] (setting [3]) amounted to 80 nM.

`CN(C(=O)[C@H](Cc1cc(F)cc(F)c1)NC(=O)c1c(F)c(F)c(F)c(C(=O)N[C@@H](Cc2cc(F)cc(F)c2)C(=O)N(C)c2ccc3scnc3c2)c1F)c1ccc2scnc2c1` [Example 81]: in data set [1], the CC50 at 4 days stood at 2800 nM. On the same count and under the same terms, next, `CCc1ccc(N(C)C(=O)[C@H](Cc2cc(F)cc(F)c2)NC(=O)NS(=O)(=O)N[C@@H](Cc2cc(F)cc(F)c2)C(=O)N(C)c2ccc(CC)cc2)cc1` [Example 173]: 25500 nM; `CN(C(=O)[C@H](Cc1cc(F)cc(F)c1)NC(=O)CN1c2ccccc2N(CC(=O)N[C@@H](Cc2cc(F)cc(F)c2)C(=O)N(C)c2ccc3scnc3c2)S1(=O)=O)c1ccc2scnc2c1` [Example 118]: not below 100000 nM.
